This is an account of results in US20100221308A1, “ANTIMICROBIAL COMPOSITIONS AND USES THEREOF” (KANE BIOTECH INC., priority 2005, published 2010).

Values after ≈ are worked out from the molar mass of the structure shown. Where two headings read alike, the source gives them in different places.

The subject of one test is C. perfringens. Description: microbe, parasite or virus in culture. The format is cell-based, Clostridium perfringens. The following applies: 24 h.
The subject of a further test is S. thermophilus. Description: MIC, broth microdilution assay. In kind it is cell-based, Streptococcus thermophilus. The following applies: agent alone, 24 h. Background: In broth dilution the organism is exposed to a series of concentrations in liquid medium.
The subject of a further test is P. aeruginosa. Description: MIC, broth microdilution assay. As to conditions: agent alone, 24 h. The format is cell-based, Pseudomonas aeruginosa.
The test system of test [1] is biofilm embedded Staphylococcus epidermidis. As to the kind of experiment: In vitro microplate assay, growth of biofilm embedded bacteria (CFU). As to conditions: FIG. 3: 12.5 μg/ml PS, 12.5 μg/ml CHX; 24 hours. The format is cell-based. As to the method: In vitro microplate assays were performed to determine the enhanced effects of protamine sulfate and chlorhexidine salt combination on the growth of biofilm embedded biofilm forming catheter-associated bacteria such as E. coli, Pseudomonas aeruginosa and Staphylococcus epidermidis. Overnight culture of each bacterial strain grown in Luria-Bertani (LB) or Tryptic Soy Broth (TSB) was used as inoculum. […] The plate was incubated at 37° C. for 24 hours. Media containing planktonic cells in each well were removed gently and rinsed with sterile water. A known volume of water was added to each well and sonicated for 30 seconds. The transfer of contents of each well into a sterile tube and vortexing for a minute was followed by 10-fold serial dilution and plating on agar plates using a spreader. After incubating the plates at 37° C. for 24 hours, the colonies forming units (CFU) were counted.

The subject of the next test is K. pneumoniae. Description: MIC, broth microdilution assay. As to conditions: agent alone, 24 h. The format is cell-based, Klebsiella pneumoniae.
The next test relates to E. coli. As to the kind of experiment: MIC, broth microdilution assay. The format is cell-based. As to conditions: agent alone, 24 h.
For another test, the system named is L. monocytogens. As to the kind of experiment: MIC, broth microdilution assay. The following applies: agent alone, 24 h. In kind it is cell-based, Listeria monocytogenes.
Another test concerns S. mutans UA 159. As to the kind of experiment: MIC for oral bacteria, broth microdilution assay. The format is cell-based. As to conditions: agent alone, 24 h. As to the method:
(§1) The minimum inhibitory concentrations (MICs) of chlorhexidine (CHX) and protamine sulfate (PS) alone and CHX and PS combination for S. mutans, S. sobrinus and A. naeslundii were determined using a broth microdilution assay in 96-well microtiter plate as described previously (Amsterdam, D. 1996., In: V. Loman, Ed., “Antibiotics in laboratory medicine”, p. 52-111, Williams and Wilkins, Baltimore, Md.). S. mutans and S. sobrinus were grown overnight at 37° C. with 100 rpm shaking in THYE broth supplemented with 0.01% hog gastric mucin, and A. naeslundii was grown in TSB-YK broth, and diluted to approximately 10^5 CFU/ml. […] Plates were incubated at 37° C. for 24 h and were read at 600 nm using a microtiter plate reader (Labsystems, Multiskan Ascent, Helsinki, Finland).

A further test relates to A. naeslundii ATCC 12104. As to the kind of experiment: MIC for oral bacteria, broth microdilution assay. In kind it is cell-based. The following applies: agent alone, 24 h. As for the experimental part:
as §1

The test system of a further test is S. sobrinus HNG 909S. Description: MIC for oral bacteria, broth microdilution assay. The format is cell-based. The following applies: agent alone, 24 h. As to the method: as §1
The subject of the next test is biofilm embedded E. coli. As to the kind of experiment: In vitro microplate assay, growth of biofilm embedded bacteria (CFU). As to conditions: FIG. 1: 50 μg/ml PS, 12.5 μg/ml CHX; 24 hours. In kind it is cell-based. As to the method:
(§2) In vitro microplate assays were performed to determine the enhanced effects of protamine sulfate and chlorhexidine salt combination on the growth of biofilm embedded biofilm forming catheter-associated bacteria such as E. coli, Pseudomonas aeruginosa and Staphylococcus epidermidis. Overnight culture of each bacterial strain grown in Luria-Bertani (LB) or Tryptic Soy Broth (TSB) was used as inoculum. Bacteria were grown in Colony Forming Antigen (CFA) medium (for gram-negative) or in TSB (for gram-positive) on a 12-well microplate in the absence and presence of each test compound (PS or CHX) separately and together (PS+CHX) at 12.5, 25, or 50 μg/ml. The plate was incubated at 37° C. for 24 hours. Media containing planktonic cells in each well were removed gently and rinsed with sterile water. A known volume of water was added to each well and sonicated for 30 seconds. The transfer of contents of each well into a sterile tube and vortexing for a minute was followed by 10-fold serial dilution and plating on agar plates using a spreader. After incubating the plates at 37° C. for 24 hours, the colonies forming units (CFU) were counted.

For test [2], the system named is biofilm embedded Pseudomonas aeruginosa. The test is described as above. As to conditions: FIG. 2: 25 μg/ml PS, 25 μg/ml CHX; 24 hours. The format is cell-based. As to the method:
as §2

A further test deals with S. aureus. Description: MIC, broth microdilution assay. The format is cell-based, Staphylococcus aureus. As to conditions: agent alone, 24 h.
In another test the test system is B. cereus. Description: MIC, broth microdilution assay. The format is cell-based, Bacillus cereus. As to conditions: agent alone, 24 h.

With `[H]/N=C(\N/C(=N/[H])NCCCCCCNC(=N)NC(=N)Nc1ccc(Cl)cc1)Nc1ccc(Cl)cc1` [CHX, chlorhexidine], the MIC with C. perfringens (Clostridium perfringens) is 1.56 µg/mL (≈ 3.09 µM); with S. thermophilus (Streptococcus thermophilus, read-out: MIC), < 0.195 µg/mL; in the test on P. aeruginosa (Pseudomonas aeruginosa, read-out: MIC), 12.5 µg/mL (≈ 24.7 µM); in the test with K. pneumoniae (Klebsiella pneumoniae, read-out: MIC), 6.25 µg/mL (≈ 12.4 µM); in the test with E. coli (Escherichia coli, read-out: MIC), 0.39 µg/mL (≈ 0.772 µM); with L. monocytogens (Listeria monocytogenes, read-out: MIC), 3.12 µg/mL (≈ 6.18 µM). The MIC with S. mutans UA 159 (Streptococcus mutans, UA159, read-out: Minimum inhibitory concentration) is 6.25 µg/mL; with A. naeslundii ATCC 12104 (Actinomyces naeslundii, ATCC12104, read-out: Minimum inhibitory concentration), 50 µg/mL; with S. sobrinus HNG 909S (Streptococcus sobrinus, HNG909S, read-out: Minimum inhibitory concentration), 1.56 µg/mL; in the test with S. aureus (Staphylococcus aureus, read-out: MIC), 0.781 µg/mL (≈ 1.55 µM); in the test with B. cereus (Bacillus cereus, read-out: MIC), 3.12 µg/mL (≈ 6.18 µM). The “inhibition of growth of biofilm embedded organism (CFU), in words” value (in [1]; in the test with biofilm embedded E. coli; in test [2]) was “more effective than protamine sulfate” throughout.
As to protamine sulfate [PS], the MIC against C. perfringens (agent alone) was >200 µg/mL; in the test with S. thermophilus, 200 µg/mL; against P. aeruginosa, 200 µg/mL; in the test on K. pneumoniae it was >200 µg/mL; against E. coli, >100 µg/mL; with L. monocytogens, 200 µg/mL. The MIC against S. aureus was 200 µg/mL; in the test on B. cereus it was >200 µg/mL. In addition, the Minimum inhibitory concentration with S. mutans UA 159, with A. naeslundii ATCC 12104 and in the test with S. sobrinus HNG 909S was >200 µg/mL each time.
